Results taken from patent publication US6737383B1, “Herbicidal oxadiazolidines” (priority 1999, dated 2004).

Columns and labels:
rice = assay: Test B flood test rice; assay type: in vivo, Oryza sativa
How it was run: (§1)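 Read-out is a visual response score from 0 (no effect) to 10 (complete control), assigned by comparison with untreated controls. Treatment was applied at the 2-leaf stage, and plants stayed in the greenhouse for twelve to sixteen days before scoring.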

bamyardgrass = assay: Test B flood test barnyardgrass; assay type: in vivo, Echinochloa crus-galli
How it was run: as §1

purple nutsedge = assay: Test B pre/postemergence purple nutsedge; assay type: in vivo, Cyperus rotundus
How it was run: (§2)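 Herbicidal effect was estimated by eye on a ten-point control scale after plants spent twelve to sixteen days in a greenhouse following soil or foliar treatment. Foliar sprays targeted plants at one to four leaves; all doses were formulated in a non-phytotoxic solvent with surfactant.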

pigweed = assay: Test B pre/postemergence pigweed; assay type: in vivo, Amaranthus retroflexus
How it was run: as §2

wild oat = assay: Test B pre/postemergence wild oat; assay type: in vivo, Avena fatua
How it was run: as §2

bedstraw = assay: Test B pre/postemergence bedstraw; assay type: in vivo, Galium aparine
How it was run: as §2

morningglory = assay: Test B pre/postemergence morningglory; assay type: in vivo, Ipomoea hederacea
How it was run: as §2

wheat = assay: Test B pre/postemergence wheat; assay type: in vivo, Triticum aestivum
How it was run: as §2

velvetleaf = assay: Test B pre/postemergence velvetleaf; assay type: in vivo, Abutilon theophrasti
How it was run: as §2

blackgrass = assay: Test B pre/postemergence blackgrass; assay type: in vivo, Alopecurus myosuroides
How it was run: as §2

surinam grass = assay: Test B pre/postemergence surinam grass; assay type: in vivo, Brachiaria decumbens
How it was run: as §2

smallflower flatsedge = assay: Test B flood test smallflower flatsedge; assay type: in vivo, Cyperus difformis
How it was run: as §1

cocklebur = assay: Test B pre/postemergence cocklebur; assay type: in vivo, Xanthium strumarium
How it was run: as §2

corn = assay: Test B pre/postemergence corn; assay type: in vivo, Zea mays
How it was run: as §2

duck salad = assay: Test B flood test duck salad; assay type: in vivo, Heteranthera limosa
How it was run: as §1

rape = assay: Test B pre/postemergence rape; assay type: in vivo, Brassica napus
How it was run: as §2

[1] = Postemergence (flood test species), Rate 125 g/ha, scale of 0 to 10 where 0 is no effect and 10 is complete control
[2] = Rate 62 g/ha, Postemergence section, flood test species, scale of 0 to 10 where 0 is no effect and 10 is complete control
[3] = Rate 250 g/ha, Postemergence (flood test), scale 0 to 10, 0 is no effect, 10 is complete control
[4] = Rate 500 g/ha, listed under Postemergence (flood test species), scale 0 to 10
[5] = Postemergence, Rate 125 g/ha, scale of 0 to 10 where 0 is no effect and 10 is complete control
[6] = Preemergence, Rate 62 g/ha, scale 0 to 10 (0 no effect, 10 complete control)
[7] = Preemergence, Rate 125 g/ha, 0 is no effect, 10 is complete control
[8] = Preemergence, Rate 250 g/ha, scale 0 to 10, 0 is no effect, 10 is complete control
[9] = Preemergence, Rate 500 g/ha, scale 0 to 10 (0 no effect, 10 complete control)
[10] = Rate 62 g/ha, Postemergence, scale of 0 to 10 where 0 is no effect and 10 is complete control
[11] = Rate 250 g/ha, Postemergence, scale 0 to 10, 0 is no effect, 10 is complete control
[12] = Rate 500 g/ha, Postemergence, scale 0 to 10

CC(C)N(C(=O)n1oc(=O)n(Cc2ccccc2Cl)c1=O)C1=CCCCC1 [Compound 145]
7: Plant response rating, Barnyardgrass (bamyardgrass; [3]) | Blackgrass plant response rating (blackgrass; [9])
8: Morningglory plant response rating (morningglory; [5]) | S. Flatsedge plant response rating (smallflower flatsedge; [4])
0: Rice plant response rating (rice; [1]) | Rice plant response rating (rice; [2]) | Plant response rating, Rice (rice; [3]) | Rice plant response rating (rice; [4]) | Barnyardgrass plant response rating (bamyardgrass; [2]) | Nutsedge plant response rating (purple nutsedge; [5]) | Nutsedge plant response rating (purple nutsedge; [6]) | Nutsedge plant response rating (0 to 10 scale) (purple nutsedge; [7]) | Nutsedge plant response rating (purple nutsedge; [8]) | Nutsedge plant response rating (purple nutsedge; [9]) | Nutsedge plant response rating (purple nutsedge; [10]) | Plant response rating, Nutsedge (purple nutsedge; [11]) | Nutsedge plant response rating (purple nutsedge; [12]) | Redroot pigweed plant response rating (pigweed; [5]) | Redroot pigweed plant response rating (pigweed; [6]) | Redroot pigweed plant response rating (0 to 10 scale) (pigweed; [7]) | Redroot pigweed plant response rating (pigweed; [10]) | Plant response rating, Redroot pigweed (pigweed; [11]) | Wild oats plant response rating (wild oat; [5]) | Wild oats plant response rating (wild oat; [6]) | Wild oats plant response rating (0 to 10 scale) (wild oat; [7]) | Wild oats plant response rating (wild oat; [8]) | Wild oats plant response rating (wild oat; [10]) | Plant response rating, Wild oats (wild oat; [11]) | Bedstraw plant response rating (bedstraw; [6]) | Bedstraw plant response rating (0 to 10 scale) (bedstraw; [7]) | Bedstraw plant response rating (bedstraw; [8]) | Bedstraw plant response rating (bedstraw; [10]) | Morningglory plant response rating (morningglory; [6]) | Morningglory plant response rating (0 to 10 scale) (morningglory; [7]) | Morningglory plant response rating (morningglory; [8]) | Wheat plant response rating (wheat; [5]) | Wheat plant response rating (wheat; [6]) | Wheat plant response rating (0 to 10 scale) (wheat; [7]) | Wheat plant response rating (wheat; [8]) | Wheat plant response rating (wheat; [9]) | Wheat plant response rating (wheat; [10]) | Plant response rating, Wheat (wheat; [11]) | Wheat plant response rating (wheat; [12]) | Velvetleaf plant response rating (velvetleaf; [5]) | Velvetleaf plant response rating (velvetleaf; [6]) | Velvetleaf plant response rating (0 to 10 scale) (velvetleaf; [7]) | Velvetleaf plant response rating (velvetleaf; [8]) | Velvetleaf plant response rating (velvetleaf; [10]) | Plant response rating, Velvetleaf (velvetleaf; [11]) | Blackgrass plant response rating (blackgrass; [6]) | Blackgrass plant response rating (blackgrass; [10]) | B. signalgrass plant response rating (surinam grass; [5]) | B. signalgrass plant response rating (surinam grass; [6]) | B. signalgrass plant response rating (0 to 10 scale) (surinam grass; [7]) | B. signalgrass plant response rating (surinam grass; [10]) | Plant response rating, B. signalgrass (surinam grass; [11]) | S. Flatsedge plant response rating (smallflower flatsedge; [1]) | S. Flatsedge plant response rating (smallflower flatsedge; [2]) | Cocklebur plant response rating (cocklebur; [5]) | Cocklebur plant response rating (cocklebur; [6]) | Cocklebur plant response rating (0 to 10 scale) (cocklebur; [7]) | Cocklebur plant response rating (cocklebur; [8]) | Cocklebur plant response rating (cocklebur; [9]) | Cocklebur plant response rating (cocklebur; [10]) | Plant response rating, Cocklebur (cocklebur; [11]) | Cocklebur plant response rating (cocklebur; [12]) | Corn plant response rating (corn; [5]) | Corn plant response rating (corn; [6]) | Corn plant response rating (0 to 10 scale) (corn; [7]) | Corn plant response rating (corn; [8]) | Corn plant response rating (corn; [9]) | Corn plant response rating (corn; [10]) | Plant response rating, Corn (corn; [11]) | Corn plant response rating (corn; [12]) | Ducksalad plant response rating (duck salad; [1]) | Ducksalad plant response rating (duck salad; [2]) | Plant response rating, Ducksalad (duck salad; [3]) | Rape plant response rating (rape; [6]) | Rape plant response rating (0 to 10 scale) (rape; [7]) | Rape plant response rating (rape; [8]) | Rape plant response rating (rape; [9]) | Rape plant response rating (rape; [10])
9: Barnyardgrass plant response rating (bamyardgrass; Rate 500 g/ha, listed under Postemergence (flood test species), scale 0 to 10, 0 no effect, 10 complete control)
4: Redroot pigweed plant response rating (pigweed; [9]) | Bedstraw plant response rating (bedstraw; [9]) | Blackgrass plant response rating (blackgrass; [8])
3: Wild oats plant response rating (wild oat; [9]) | Plant response rating, Bedstraw (bedstraw; [11]) | B. signalgrass plant response rating (surinam grass; [8]) | Plant response rating, Rape (rape; [11]) | Rape plant response rating (rape; [12])
10: Plant response rating, Morningglory (morningglory; [11]) | Morningglory plant response rating (morningglory; [12])
2: Redroot pigweed plant response rating (pigweed; [8]) | Redroot pigweed plant response rating (pigweed; [12]) | Wild oats plant response rating (wild oat; [12]) | Bedstraw plant response rating (bedstraw; [5]) | Velvetleaf plant response rating (velvetleaf; [12]) | B. signalgrass plant response rating (surinam grass; Rate 500 g/ha, Postemergence, scale of 0 to 10 where 0 is no effect and 10 is complete control) | Ducksalad plant response rating (duck salad; [4]) | Rape plant response rating (rape; [5])
1: Morningglory plant response rating (morningglory; [9]) | Blackgrass plant response rating (blackgrass; [5]) | Blackgrass plant response rating (0 to 10 scale) (blackgrass; [7])
5: Bedstraw plant response rating (bedstraw; Rate 500 g/ha, Postemergence, scale 0 to 10, 0 no effect, 10 complete control) | Velvetleaf plant response rating (velvetleaf; [9]) | Plant response rating, Blackgrass (blackgrass; [11]) | B. signalgrass plant response rating (surinam grass; [9]) | Plant response rating, S. Flatsedge (smallflower flatsedge; [3])
6: Barnyardgrass plant response rating (bamyardgrass; [1]) | Morningglory plant response rating (morningglory; [10]) | Blackgrass plant response rating (blackgrass; [12])
